Here are results for 19 compounds from patent US20210170033A1, “NOVEL CONJUGATES OF A PHARMACEUTICAL AGENT AND A MOIETY CAPABLE OF BINDING TO A GLUCOSE SENSING PROTEIN” (SANOFI, priority 2017, published 2021).

Where two headings read alike, the source gives them in different places.

Test [1] deals with T1, hGLUT1 protein (Homo sapiens, UniProt P11166).
T1 construct: fused on or other part: 11-amino-acid HiBiT peptide tag (small part of nanoluciferase) inserted into the first extracellular loop of GLUT1
T1 sequence (P11166 1-492): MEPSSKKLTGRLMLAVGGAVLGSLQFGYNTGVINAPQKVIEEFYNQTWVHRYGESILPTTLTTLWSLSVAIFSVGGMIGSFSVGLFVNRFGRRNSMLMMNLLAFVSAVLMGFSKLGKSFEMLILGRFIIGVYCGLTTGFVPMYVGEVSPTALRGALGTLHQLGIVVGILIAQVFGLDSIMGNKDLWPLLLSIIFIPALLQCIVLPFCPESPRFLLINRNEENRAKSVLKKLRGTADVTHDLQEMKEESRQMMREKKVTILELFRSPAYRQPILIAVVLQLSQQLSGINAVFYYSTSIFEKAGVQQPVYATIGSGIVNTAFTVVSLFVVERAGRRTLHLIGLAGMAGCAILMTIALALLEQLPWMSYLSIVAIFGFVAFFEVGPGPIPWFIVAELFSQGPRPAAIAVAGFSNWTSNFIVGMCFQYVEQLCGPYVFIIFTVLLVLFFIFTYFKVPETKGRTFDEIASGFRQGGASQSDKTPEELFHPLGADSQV
The experiment in a line: NanoBRET-based GLUT1-binding assay in HEK cells. To be noted: for BRET interference signal using Glucose: check of HiBit-tagged GLUT1 HEK cell line, stereoselective signal. On the procedure:
3. NanoBRET-Based GLUT1-Binding Assays in HEK Cells
To measure binding of compounds to the hGLUT1 protein, the newly-developed NanoBRET platform from Promega is used. In this technology binding is measured via Foerster Resonance Energy Transfer. Foerster Resonance Energy Transfer is based on a direct, radiation-free energy transfer from donor to acceptor and can only take place when donor and acceptor are within nm distance. As donor energy the bioluminescence light of nanoluciferase is used, therefore this application is referred to as BRET (Bioluminescence Resonance Energy Transfer). Nanoluciferase is a protein that emits light when the appropriate substrate is available.
Nanoluciferase is attached to GLUT1 via protein complementation using the HiBit protein tagging system (Promega). […] The HiBit peptide tag is used as a landing pad for the so called Large Bit protein that is commercially available from Promega and added to the medium. Large Bit has a high affinity for HiBit tag resulting in protein complementation to a fully-functional nanoluciferase, which is used as energy donor in the NanoBRET assay system.
To obtain a HEK cell line expressing HiBit-tagged GLUT1, cells were transfected with the appropriate construct placed behind the tetracycline-inducible promoter (Flipin T-Rex system from Thermo Fisher, K650001) and a cell line was generated.
As NanoBRET acceptor a GLUT1 inhibitor described by Siebeneicher et al. (Siebeneicher H., Bauser M., Buchmann B., et al. Identification of novel GLUT inhibitors. Bioorganic & Medicinal Chemistry Letters 2016; 26(7):1732-7; compound 53) was reduced to the aminobenzyl derivative and coupled to the fluorophore NanoBRET618 (Promega) and is referred to as “Bayer+NB618”.
For the assay 50 μl with 7500 cells (HiBit-tagged GLUT1 HEK cells) are plated into 384 poly-D-lysine-coated black μClear plates (Greiner) in DMEM (Gibco 61966) medium supplemented with 10% tetracycline-free FCS (PAN P30-3602) and 300 ng/ml doxycycline (Sigma 9891) to induce the induction of the HiBit-tagged GLUT1 protein.
Incubation of Compound and Acceptor Molecule
After getting adherent by overnight incubation at 37° C. and 10% CO2, the medium is replaced by 10 μl imaging medium (1% BSA (Sigma A9576), 5 mM Hepes (Gibco 15630), 0.35 mM Na-bicarbonate (Gibco 11360-039), 1 mM Na-Pyruvate (Gibco 11360) in PBS buffer (Gibco14040)). 5 μl Bayer+NB618 (in imaging medium, final concentration 75 nM) is added and the plates are incubated for 15 minutes statically at room temperature.
A serial dilution of the test compounds is prepared in imaging medium and added in 10 μl to the respective wells. As a positive control for displacement values from wells incubated with 200 mM D-Glucose (Sigma G8769) are used. Plates are incubated for 30 minutes at room temperature without shaking.
Generating Luminescence and Measuring Fluorescence
This detection solution is made in the buffer provided. After addition of the detection reagent, the samples are incubated for 30 minutes without shaking and subsequently the luminescence and fluorescence emissions are measured simultaneously on the PHERAstar FSX (BMG Labtech) using the appropriate dual filter setup. This filter setup is made up of a 450-80 nm band pass filter to measure the donor signal peaking at 460 nm and a long pass filter starting at 610 nm to measure the fluorescence emission of NanoBRET 618, which peaks at 621 nm and continues beyond 700 nm.
From the raw luminescence and fluorescence values, the NanoBRET ratios are calculated, being the ratio of the fluorescence signal divided by the luminescence signal. Mean values are obtained from at least duplicates.
For percentage inhibition results, the mean value of the not-compound-treated cells is set as 0%. The mean BRET value of the cells treated with 200 mM glucose is used for maximal inhibition. All other mean values were calculated to this relation. […]

The test system of test [2] is A2780 cells. Put plainly: Deoxy-glucose uptake assay in A2780 cells (14C 2-deoxy-D-glucose transport). Format: cell-based. To be noted: Homo sapiens, 20 min; inhibition of 14C 2-deoxy-D-glucose transport into A2780 cells; 20 min compound incubation; read-out: IC50. The method, boiled down:
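Radiolabelled 2-deoxy-D-glucose transport over 20 min was scintillation-counted in A2780 cells, grown 48 h, after 20 min compound exposure in KRB. Untreated cells gave the 100% reference, with Cytochalasin B defining background. IC50 values were regressed from triplicate means across 7 or 14 concentrations.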

For test [3], the system named is A2780 Human Carcinoma Cells. Put plainly: Glucose displacement assay (ATP measurement, CellTiter-Glo). To be noted: ATP measurement in A2780 cells, 0.5 μM rotenone. The test is classed as cell-based. Here is the method: 2. Glucose Displacement Assay (ATP Measurement)
30,000 A2780 Human Carcinoma Cells are seeded per well in a Greiner 96-well plate. Cells are expanded and cultured in RPMI 1640 medium+GlutaMAX® with 10% FCS and 11 mM glucose, at 37° C. with 5% CO2. After 44 h, culture media is changed and washed once with PBS to starvation media consisting of RPMI 1640 medium with 1% FCS without glucose for 2 hours. Cells are then washed with KRB buffer, followed by incubation for 20 min at 37° C. of the treatment mix consisting of 60 μL KRB buffer/well and 10 μL of compound or DMSO 10×. 10 μl of rotenone is added to the mix to a final concentration of 0.5 μM. Cell plates are left for 2 min at room temperature. 20 μL of different glucose concentrations are added to the mix—typically 0.1 to 10 mM range—.
Cells are incubated for another 15 min at 37° C., before measuring ATP with the CellTiter-Glo® Assay, under manufacturer's guidance, but without the equilibration step at room temperature for 30 min. In brief, 100 μl of Cell-Titer-Glo® Reagent is added to the wells containing already 100 μl of the previous reaction mix. Plates are mixed for 2 min at 800 rpm, followed by incubation at room temperature for 10 min to stabilize the luminescent signal. Luminescence is then recorded with the Tekan Ultra Evolution reader.

The mark [4] stands for this setting: displacement of Bayer+NB618 (75 nM) from HiBit-tagged GLUT1 HEK cells, mean of measurements done twice in duplo, read-out: IC50.
[5] abbreviates: 1 mM glucose, read-out: IC50 [μM] at 1 mM glucose.
[6] abbreviates: 10 mM glucose, read-out: IC50 [μM] at 10 mM glucose.

For orientation: IC50 means the point on the concentration scale where inhibition reaches its midpoint. With `O=C[C@H](O)[C@@H](O)[C@H](O)[C@H](O)CO` [D-Glucose, reference compound], in test [1], the IC50 stood at 5330 ± 560 µM and the “BRET interference signal using Glucose” value was “decreases BRET”.

As for `CO[C@H]1O[C@H](CO)[C@@H](O)[C@H](O)[C@H]1OC(=O)c1cc(Cl)c(OCc2cccc(CNC(=O)OC(C)(C)C)c2)c(Cl)c1C` [Example 202a], the IC50 worked out at 1.8 µM in test [2] and 4.41 µM in test [1] (setting [4]).

Consider `CO[C@H]1O[C@H](CO)[C@@H](O)[C@H](O)[C@H]1NC(=O)c1cc(Cl)c(OCc2nc3ccccc3n2CCCCCCNC(=O)OC(C)(C)C)c(Cl)c1C` [Example 305], for which the figures for the IC50 in test [2] and in test [1] (setting [4]) were 0.1 µM and 2.83 µM, respectively.

On to `C#CCCCn1c(COc2cc(OC)c(C(=O)O[C@@H]3[C@@H](O)[C@@H](OC)O[C@H](CO)[C@H]3O)cc2Cl)nc2ccccc21` [Example 367], for which the IC50 is 3.9 µM in test [2] and more than 30 µM in test [1] (setting [4]).

In the case of `COC(=O)/C=C/c1ccc(COc2cc(OC)c(C(=O)N[C@H]3[C@@H](OC)O[C@H](CO)[C@@H](O)[C@@H]3O)cc2Cl)cc1` [Example 370], the results for the IC50 in test [2] and in test [1] (setting [4]) were 0.4 µM and 6.98 µM, respectively.

As to `COc1cc(OCc2cccc(OCCCC(=O)OC(C)(C)C)c2)c(Cl)cc1C(=O)N[C@H]1[C@@H](OC)O[C@H](CO)[C@@H](O)[C@@H]1O` [Example 393], the IC50 in test [2] turned out to be 0.9 µM; in test [1] (setting [4]), 17.2 µM.

On to `COC(=O)c1ccn2cc(COc3cc(OC)c(C(=O)N[C@H]4[C@@H](OC)O[C@H](CO)[C@@H](O)[C@@H]4O)cc3Cl)nc2c1` [Example 416], for which the IC50 in test [3] (setting [5]) came out at 1.64 µM; in test [3] (setting [6]) it was 22.4 µM; in test [1] (setting [4]), 9.77 µM.

As for `COC(=O)[C@H](CCCCNC(=O)CCCCCCC(=O)NCc1cccc(COc2cc(OC)c(C(=O)N[C@H]3[C@@H](OC)O[C@H](CO)[C@@H](O)[C@@H]3O)cc2Cl)c1)NC(=O)OC(C)(C)C` [Example 437], the IC50 is 17.6 µM in test [2], 19.5 µM in test [3] (setting [5]) and more than 33 µM in test [3] (setting [6]).

For `COC(=O)[C@H](CCCCNC(=O)CCCCCCCCC(=O)NCc1cccc(COc2cc(OC)c(C(=O)N[C@H]3[C@@H](OC)O[C@H](CO)[C@@H](O)[C@@H]3O)cc2Cl)c1)NC(=O)OC(C)(C)C` [Example 438], the IC50 in test [2] is 13.8 µM; in test [3] (setting [5]) it was 13 µM; in test [3] (setting [6]), more than 33 µM.

On to `CO[C@H]1O[C@H](CO)[C@@H](O)[C@H](O)[C@H]1NC(=O)c1cc(Cl)c(OCc2cccc(CNC(=O)OC(C)(C)C)c2)c(Cl)c1C` [Example 439], for which the IC50 in test [2] stood at 3.3 µM; in test [3] (setting [5]), 2.5 µM; in test [3] (setting [6]), 11.5 µM.

Turning to `COC(=O)[C@H](CCCCNC(=O)CCCC(=O)Nc1cccc(COc2cc(OC)c(C(=O)N[C@H]3[C@@H](OC)O[C@H](CO)[C@@H](O)[C@@H]3O)cc2Cl)c1)NC(=O)OC(C)(C)C` [Example 440], the IC50 in test [2] is 7 µM; in test [3] (setting [5]), 18 µM; in test [3] (setting [6]) it was more than 33 µM.

Consider `COC(=O)[C@H](CCCCNC(=O)CCCCCCC(=O)Nc1cccc(COc2cc(OC)c(C(=O)N[C@H]3[C@@H](OC)O[C@H](CO)[C@@H](O)[C@@H]3O)cc2Cl)c1)NC(=O)OC(C)(C)C` [Example 441], for which the figures for the IC50 in test [2], in test [3] (setting [5]) and in test [3] (setting [6]) were 2.7 µM, 3 µM and 11.4 µM, respectively.

As for `COC(=O)[C@H](CCCCNC(=O)CCCCCCCCC(=O)Nc1cccc(COc2cc(OC)c(C(=O)N[C@H]3[C@@H](OC)O[C@H](CO)[C@@H](O)[C@@H]3O)cc2Cl)c1)NC(=O)OC(C)(C)C` [Example 442], the IC50 in test [2] was 1 µM; in test [3] (setting [5]), 1.6 µM; in test [3] (setting [6]) it was 5.2 µM.

With `CO[C@H]1O[C@H](CO)[C@@H](O)[C@H](O)[C@H]1NC(=O)c1cc(Cl)c(OCc2cccc(NC(=O)OC(C)(C)C)c2)c(Cl)c1C` [Example 443], the IC50 in test [2] stood at 6 µM; in test [3] (setting [5]), 2 µM; in test [3] (setting [6]), 8.9 µM.

Regarding `COc1c(C(=O)N[C@H]2[C@@H](OC)O[C@H](CO)[C@@H](O)[C@@H]2O)cc(Cl)c(OCc2cccc(CNC(=O)OC(C)(C)C)c2)c1Cl` [Example 444], the results for the IC50 in test [2], in test [3] (setting [5]) and in test [3] (setting [6]) were 1.6 µM, 4 µM and 8.4 µM, respectively.

Consider `COc1cc(OCc2nc3ccccc3n2CCCCCCCCCCCC(=O)O)c(Cl)cc1C(=O)N[C@H]1[C@@H](OC)O[C@H](CO)[C@@H](O)[C@@H]1O` [Example 469], for which the IC50 is 1.7 µM in test [2], 2.4 µM in test [3] (setting [5]) and 3.3 µM in test [3] (setting [6]).

As to `COC(=O)[C@H](CCCCNC(=O)CCCCCNC(=O)CCCCCCC(=O)Nc1cccc(COc2cc(OC)c(C(=O)N[C@H]3[C@@H](OC)O[C@H](CO)[C@@H](O)[C@@H]3O)cc2Cl)c1)NC(=O)OC(C)(C)C` [Example 471], the IC50 in test [2] is 0.8 µM; in test [3] (setting [5]), 3.4 µM; in test [3] (setting [6]), 8.6 µM.

In the case of `COC(=O)[C@@H](CCCCNC(=O)CCCCCNC(=O)CCCCCCCCC(=O)Nc1cccc(COc2cc(OC)c(C(=O)N[C@H]3[C@@H](OC)O[C@H](CO)[C@@H](O)[C@@H]3O)cc2Cl)c1)NC(=O)OC(C)(C)C` [Example 472], the IC50 in test [2] came out at 1.6 µM; in test [3] (setting [5]), 5.9 µM; in test [3] (setting [6]), 15.6 µM.

Consider `O=C[C@@H](O)[C@H](O)[C@@H](O)[C@@H](O)CO` [L-Glucose, reference compound], for which the “BRET interference signal using Glucose” value in test [1] is “no effect on BRET”.
